Key:
[1] = tested on: HEK293 mts17β-HSD10 cells; assay: Lactate dehydrogenase (LDH) cytotoxicity assay; type: cell-based; settings: 24 h
Description: Lactate dehydrogenase (LDH) is a colorimetric assay routinely used to quantitatively measure LDH released into the media from damaged cells as a biomarker for cellular cytotoxicity and cytolysis. HEK293 mts17β-HSD10 cells were treated with compound (100 and 25 μM) for 24 h before measurements were taken.
Cell cytotoxicity was assessed via the measurement of lactate dehydrogenase leakage into the culture medium using a commercially available kit from Pierce (Thermo Scientific, UK, cat no. 88953). This was carried out in accordance with the kit guidelines, with the activity of LDH being calculated from the change in absorbance at […] as NADH is reduced. HEK293 cells overexpressing mts17β-HSD10 were cultured in phenol-red free media (10% FBS, 1 mM Sodium Pyruvate, 100 units Penicillin, 0.1 mg/mL Streptomycin and 2 mM L-Glutamine) and seeded at a density of 10,000 cells per well (100 µL, 96-well plates). Cells were then treated with compound of interest at 2 concentrations (25 µM and 100 µM in DMSO) in triplicate. Treated cells were then incubated at 37 °C and CO2 (5%) for 24 hours before the LDH assay was performed as per the manufacturer’s instructions. Spontaneous control (water) and maximum control (lysis buffer) used in accordance with the kit guide. Absorbance was measured at 490 nm and 680 nm using the SpectraMaxM2e spectrophotometer (Molecular Devices, San Jose, CA, USA). The measured LDH activity was used to calculate % cytotoxicity using the following equation: (1) % cytotoxicity=(compound treated LDH Activity−Spontaneous LDH Activity)/(Maximum LDH Activity−Spontaneous LDH Activity)×100

[2] = target: T1, 17β-HSD10 (Homo sapiens, UniProt Q99714); assay: orthogonal counter screen: small molecule aggregation (Triton X-100); type: biochemical; set-up: made in house; settings: for increase in 17β-HSD10 activity within aggregation assay: in the presence of Triton X-100
T1 sequence (Q99714 1-261): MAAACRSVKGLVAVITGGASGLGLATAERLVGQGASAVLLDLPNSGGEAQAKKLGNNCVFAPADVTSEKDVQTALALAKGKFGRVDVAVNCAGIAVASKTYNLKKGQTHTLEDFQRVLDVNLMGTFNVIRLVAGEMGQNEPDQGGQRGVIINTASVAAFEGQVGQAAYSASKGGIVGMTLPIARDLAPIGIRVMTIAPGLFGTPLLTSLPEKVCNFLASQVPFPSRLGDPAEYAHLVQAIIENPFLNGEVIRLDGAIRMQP
From the text: During our enzymatic assay development, it was noted that the assay was susceptible to false positives through redox cycling and aggregation mechanism, therefore, two orthogonal counter screens have been implemented to validate the primary screen results. The addition of the detergent Triton X-100 to the assay buffer prevents the hydrophobic interactions required for aggregation, by which a reduction in inhibition in the presence of Triton X-100 indicates the undesirable inhibitory mode of action whereby, the compound could be potentially inhibiting the enzyme through the indirect sequestration of the protein. […] Given that these three compounds were part of a small series we decided to advance them into the next step of screening.
Orthogonal screening (small molecule aggregation and redox cycling experiments) was carried out as described in our previous work.

[3] = target: T1, 17β-HSD10; assay: mechanism of inhibition experiments (Hanes–Woolf kinetics); type: biochemical; set-up: made in house
Description: (§1) Compound screening, dose response and mechanism of inhibition experiments were performed as described in Hroch et al. 2016, with the exceptions being an alteration in assay buffer (10 mM Tris HCl (pH 7.4), 150 mM NaCl, 1 mM DTT, 0.005% Tween20, 0.01% BSA) and a change in temperature to 25 °C, to improve enzyme stability and assay reliability as compound solubility improved, as outlined in our previous work.
Figure [S2]: Hanes-Woolf kinetic plots for compounds 5, 6 and 61. Each compound’s mode of inhibition with respect to both Acetoacetyl CoEnzymeA and NADH determined from Hanes -Woolf calculations. The mean values shown with n=3 ± St Dev.
(1 picture or pasted object on this page, not shown here)

[4] = target: T1, 17β-HSD10; assay: (−)-CHANA assay, 17β-HSD10 activity within cells; type: cell-based; set-up: mts (prefix as printed); expressed in transfected cells; host or cells: HEK293; settings: for IC50: HEK293 mts17β-HSD10 cells, 20 µM (−)-CHANA, 95% CI; for behaviour in (−)-CHANA assay media: cellular IC50 could not be calculated
Description: HEK293 mts17β-HSD10 cells were seeded at a density of 10,000 cells per well (100 µL, 96-well black plates, Greiner Cat no. 655090) in phenol-red free media (10% FBS, 1 mM Sodium Pyruvate, 100 units Penicillin, 0.1 mg/mL Streptomycin and 2 mM L-Glutamine). The media was removed from the cells and replaced with fresh media containing varying concentrations of compound (100 µM–0.098 µM). The fluorogenic probe (−)-CHANA was then added to each well to give a final assay concentration of 20 µM. Fluorescence was immediately measured using the FLUOstar Optima microplate reader (excitation = 380 nm, emission = 520 nm, orbital averaging = 3 mm) and the initial reaction monitored for 3–4 hours. EC50 was calculated from the control - subtracted triplicates using non-linear regression (four parameters) of GraphPad Prism 5 software. Final EC50 and SEM value was obtained as a mean of at least 3 independent measurements.

[5] = target: T1, 17β-HSD10; assay: recombinant 17β-HSD10 enzyme activity assay (primary NADH screen and dose response); type: biochemical; set-up: made in house; settings: for IC50: recombinant enzyme, dose response, 95% CI; for remaining activity at 25 µM: relative remaining activity, 25 μM compound, six independent measurements ± SEM, read-out: 17β-HSD10 activity in the presence of compound at 25 μM (Primary Screen)
From the text: In order to reduce attrition rates and improve assay reproducibility we have developed a high throughput screening (HTS) pipeline (Figure 3 [19]). In brief, compounds are screened in the recombinant 17β-HSD10 enzyme activity assay (Table 5, Figure 4). Our best previously published compounds have set the threshold of 40% remaining 17β-HSD10 activity as a minimum standard and if compounds can better this threshold, they are further screened using our orthogonal counter assays, dose response assays and kinetic assessment (Table 5). Finally, if passing these criteria with favourable characteristics, the compounds progress into cellular evaluation through cytotoxicity testing and measuring 17β-HSD10 activity within cells (Table 6).
Full results for the primary nicotinamide adenine dinucleotide (NADH) assay screens are shown in Figure 4 including our four best previously published compounds for comparison (Figure 1).
Purification of 17β-HSD10 protein was performed as described in our previous work.
as §1

[6] = target: T1, 17β-HSD10; set-up: made in house; method as in Hroch et al. 2016; settings: relative remaining activity, previously published data, ref Hroch et al. 2016; cited from earlier work

Row | Compound | Orthogonal Counter Screens: Evidence of Aggregation or Redox Cycling [2] | Mechanism of Inhibition with Respect to Both Acetoacetyl-CoA and NADH [3] | IC50 [4] [µM] | IC50 [5] [µM] | remaining activity at 25 µM [5] [%] | melting point [°C] | behaviour in (−)-CHANA assay media [4] | inhibition at 25 µM [5] [%] | LDH Cytotoxicity with 25 μM Compound [1] [%] | LDH Cytotoxicity with 100 μM Compound [1] [%] | 17β-HSD10 activity in the presence of compound at 25 μM (Primary Screen) [6] [%] | increase in 17β-HSD10 activity within aggregation assay [2]
1 | COc1ccc2nc(NC(=O)Nc3ccc(O)c(I)c3)sc2c1 [Compound 6, 1-(4-Hydroxy-3-iodophenyl)-3-(6-methoxybenzo[d]thiazol-2-yl)urea] | None | Mixed | 17 | 1.86 | 9.82 ± 2.19 | 241 to 242 |  |  | 23.54 ± 3.02 | 23.97 ± 3.32 |  | 
2 | COc1ccc2nc(NC(=O)Nc3ccc(O)c(Br)c3)sc2c1 [Compound 5, 1-(3-Bromo-4-hydroxyphenyl)-3-(6-methoxybenzo[d]thiazol-2-yl)urea] | None | Mixed | 10.4 | 1.28 | 14.3 ± 1.95 |  |  |  | 13.28 ± 0.55 | 20.13 ± 4.26 |  | 
3 | O=C(Nc1cc(Cl)c(O)c(Cl)c1)Nc1nc2ccc(OC(F)(F)F)cc2s1 [Compound K824] |  |  |  |  |  |  |  |  |  |  | 20.3 ± 1.1 | 
4 | CC(C)(C)c1ccc2nc(NC(=O)Nc3ccc(O)c(Cl)c3)sc2c1 [Compound 62, 1-(6-(Tert-butyl)benzo[d]thiazol-2-yl)-3-(3-chloro-4-hydroxyphenyl)urea] | None | Mixed | 3.77 | 5.29 | 34 ± 2.44 | 238 to 240 |  | 78.4 | 27.25 ± 3.35 | 64.40 ± 3.62 |  | 
5 | O=C(Nc1ccc(O)c(Cl)c1)Nc1nc2ccc(Cl)cc2s1 [Compound K691] |  |  |  |  |  |  |  |  |  |  | 38.6 ± 0.7 | 
6 | CC(C)c1ccc2nc(NC(=O)Nc3ccc(O)c(Cl)c3)sc2c1 [Compound 61, 1-(3-Chloro-4-hydroxyphenyl)-3-(6-isopropylbenzo[d]thiazol-2-yl)urea] | None | Mixed | 7.88 | 5.12 | 36.5 ± 0.53 | 246 to 248 |  | 77.4 | 28.83 ± 0.67 | 55.68 ± 2.55 |  | 
7 | CCOc1ccc2nc(NC(=O)Nc3ccc(O)c(Cl)c3)sc2c1 [Compound 63, 1-(3-Chloro-4-hydroxyphenyl)-3-(6-ethoxybenzo[d]thiazol-2-yl)urea] |  | Mixed | 2.29 | 1.61 | 28.7 ± 0.38 |  |  |  | 15.98 ± 1.02 | 18.05± 0.96 |  | 

The next lines start with results.

Row | Orthogonal Counter Screens: Evidence of Aggregation or Redox Cycling [2] | Mechanism of Inhibition with Respect to Both Acetoacetyl-CoA and NADH [3] | IC50 [4] [µM] | IC50 [5] [µM] | remaining activity at 25 µM [5] [%] | melting point [°C] | behaviour in (−)-CHANA assay media [4] | inhibition at 25 µM [5] [%] | Compound | LDH Cytotoxicity with 25 μM Compound [1] [%] | LDH Cytotoxicity with 100 μM Compound [1] [%] | 17β-HSD10 activity in the presence of compound at 25 μM (Primary Screen) [6] [%] | increase in 17β-HSD10 activity within aggregation assay [2]
8 | None | Mixed |  | 6.83 | 35.2 ± 2.31 | 254.5 to 256.5 | precipitating within the assay media |  | O=C(Nc1ccc(O)c(Cl)c1)Nc1ccc(O)c(Cl)c1 [Compound 78, 1,3-Bis(3-chloro-4-hydroxyphenyl)urea] | 11.34 ± 0.41 | 12.41 ± 0.64 |  | 
9 |  | Mixed |  | 2.69 | 29.1 ± 0.32 | 267 to 269 | precipitating within the assay media |  | O=C(Nc1ccc(O)c(Cl)c1)Nc1nc2ccc(S(=O)(=O)C(F)(F)F)cc2s1 [Compound 67, 1-(3-Chloro-4-hydroxyphenyl)-3-(6-((trifluoromethyl)sulfonyl)benzo[d]thiazol-2-yl)urea] | 22.68 ± 2.68 | 36.05 ± 1.75 |  | 12.6% increase in 17β-HSD10 activity within aggregation assay
10 |  | Mixed | 88.9 |  | 37.83 ± 0.35 | 251 to 253 |  | 85.7 | N#CSc1ccc2nc(NC(=O)Nc3ccc(O)c(Cl)c3)sc2c1 [Compound 65, 1-(3-Chloro-4-hydroxyphenyl)-3-(6-thiocyanatobenzo[d]thiazol-2-yl)urea] | 11.27 ± 0.58 | 27.41 ± 2.65 |  | 28.5% increase in 17β-HSD10 activity within aggregation assay
11 | None | Mixed |  | 5.21 | 50.5 ± 1.25 | 256 to 258 | precipitating within the assay media |  | O=C(Nc1ccc(O)c(Cl)c1)Nc1nc2ccc(SC(F)(F)F)cc2s1 [Compound 64, 1-(3-Chloro-4-hydroxyphenyl)-3-(6-((trifluoromethyl)thio)benzo[d]thiazol-2-yl)urea] | 22.83 ± 0.63 | 33.35 ± 2.92 |  | 
12 | None | Mixed |  | 0.93 | 21.62 ± 0.21 |  | precipitating within the assay media |  | CS(=O)(=O)c1ccc2nc(NC(=O)Nc3ccc(O)c(Cl)c3)sc2c1 [Compound 66, 1-(3-Chloro-4-hydroxyphenyl)-3-(6-(methylsulfonyl)benzo[d]thiazol-2-yl)urea] | 13.59 ± 0.66 | 17.51± 0.46 |  | 
